From patent US10537549B2, “Dihydroisoxazole compound for use in controlling sea lice” (Elanco Tiergesundheit AG, priority 2016, dated 2020) come the findings set out here.

The test system of test [1] is Lepeophtheirus Salmonis at Copepodid Stage. Nature of the test: Activity in vitro against Lepeophtheirus salmonis at copepodid stage. The settings on record: 1 hour contact, then 48 h in untreated sea water. How it is done: Stir a mixture of 3-[(5S)-5-(3,4,5-trichlorophenyl)-5-(trifluoromethyl)-4H-isoxazol-3-yl]-4,5,6,7-tetrahydro-2-benzothiophene-1-carboxylic acid (15.00 g, 30.08 mmol), 2-amino-N-prop-2-ynyl-acetamide (4.90 g, 33.09 mmol, HCl), 1-[bis(dimethylamino)methylene]-1H-1,2,3-triazolo[4,5-b]pyridinium 3-oxid hexafluorophosphate (13.72 g, 36.10 mmol) and N,N-diisopropylethylamine (11.66 g, 90.24 mmol) in dichloromethane (500 mL) at 25° C. for 12 hours. Use thin layer chromatography (petroleum ether:ethyl acetate=3:1, Rf=0.30) to show the reaction progress. Dilute the mixture in water (500 mL) and extract with dichloromethane (500 mL×3). Wash the organic layer with brine (500 mL), dry over sodium sulfate, filter and concentrate under reduced pressure to dryness. […]

Test [2] has as its system Lepeophtheirus Salmonis (copepodids, MERL resistant strain IoA-01) on Atlantic Salmon. Nature of the test: Activity in vivo against Lepeophtheirus salmonis on Atlantic Salmon using in-feed application. To be noted: in-feed 5 mg/kg/day for 7 days. As for the experimental part: Activity In Vivo Against Lepeophtheirus Salmonis on Atlantic Salmon Using in-Feed Application
60 Salmon (Atlantic Salmon, S. salar) of average weight 306.5 g are treated with medicated pellets containing the compound of Example 1 (test compound) at a dose of 5 mg/kg/day during 7 consecutive days. The medicated pellets are prepared by dry coating commercially available fish feed pellets with pre-mix containing the test compound to reach a content of […] test compound in the fish feed, sealing with 1% fish oil and administering at a 1% feeding rate. The treatment is carried out in sea water. After treatment, the fish are challenged with copepodids (the MERL resistant strain IoA-01) on 35, 100 and 150 days post-treatment. During the study the water temperature varies between 7 and 10° C. Fish weight and sea louse numbers are assessed 42, 107 and 157 days post-treatment. Counts are conducted on 30 fish at each sampling occasion.
Efficacy is determined by comparison with a negative control (placebo) group.
Efficacy is calculated using the formula: % Efficacy=100−(100×mean of treatment group/mean of control).
All fish are anaesthetized with 2-phenoxy-ethanol and examined for louse settlement under a dissecting microscope. After counting, fish are returned to the tanks.

In the case of `C#CCNC(=O)CNC(=O)c1sc(C2=NO[C@@](c3cc(Cl)c(Cl)c(Cl)c3)(C(F)(F)F)C2)c2c1CCCC2` [Example 1, N-[2-oxo-2-(prop-2-ynylamino)ethyl]-3-[(5S)-5-(3,4,5-trichlorophenyl)-5-(trifluoromethyl)-4H-isoxazol-3-yl]-4,5,6,7-tetrahydro-2-benzothiophene-1-carboxamide], in test [1] (0.5 ng/ml sea water), the “efficacy (no copepodid moves over a period of 80 seconds)” value is listed as 100%. The “minimal effective dose (MED): dose showing 100% efficacy” value in test [1] (serial dilution) is given as ≤ 0.5 ng/ml sea water. Besides, the “% Efficacy vs placebo group (sea louse counts)” value in test [2] (challenge 35 days post treatment (counts at 42 days)), in test [2] (challenge 100 days post treatment (counts at 107 days)) and in test [2] (challenge 150 days post treatment (counts at 157 days)) was 100% throughout.
